According to publication PMC5050400 (Current Neuropharmacology, 2016):
Residue numbers refer to the chain shown, from its start. Several values for one entry are separate records, joined by “and”; a condition that tells them apart may be missing. Identical values can stand only once. Like-named read-outs stand apart in the source and are kept apart here.

How the values were obtained:
[1] = target: T1, α1β3(Y143W) GABAA receptor (Homo sapiens, UniProt P14867+P28472, Y168W); test: Two-electrode voltage clamp activation of α1β3; format: cell-based; conditions: for Po,max^est / nH / d: α1β3(Y143W); for d: KO/KC, MWC fit
T1 sequence (P28472 26-473 Y168W): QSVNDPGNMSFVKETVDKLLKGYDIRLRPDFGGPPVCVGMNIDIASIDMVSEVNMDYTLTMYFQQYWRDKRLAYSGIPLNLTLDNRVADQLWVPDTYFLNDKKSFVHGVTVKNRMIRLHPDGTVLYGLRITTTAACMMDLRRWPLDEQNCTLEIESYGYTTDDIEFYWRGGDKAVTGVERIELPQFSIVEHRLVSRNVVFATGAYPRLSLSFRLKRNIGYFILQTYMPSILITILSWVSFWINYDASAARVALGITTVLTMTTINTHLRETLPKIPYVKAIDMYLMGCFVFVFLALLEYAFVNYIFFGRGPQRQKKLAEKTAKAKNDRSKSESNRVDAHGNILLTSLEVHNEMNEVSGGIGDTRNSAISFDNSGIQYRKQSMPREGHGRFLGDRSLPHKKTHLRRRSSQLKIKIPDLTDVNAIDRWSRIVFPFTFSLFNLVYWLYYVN
T1 sequence (P14867 28-456): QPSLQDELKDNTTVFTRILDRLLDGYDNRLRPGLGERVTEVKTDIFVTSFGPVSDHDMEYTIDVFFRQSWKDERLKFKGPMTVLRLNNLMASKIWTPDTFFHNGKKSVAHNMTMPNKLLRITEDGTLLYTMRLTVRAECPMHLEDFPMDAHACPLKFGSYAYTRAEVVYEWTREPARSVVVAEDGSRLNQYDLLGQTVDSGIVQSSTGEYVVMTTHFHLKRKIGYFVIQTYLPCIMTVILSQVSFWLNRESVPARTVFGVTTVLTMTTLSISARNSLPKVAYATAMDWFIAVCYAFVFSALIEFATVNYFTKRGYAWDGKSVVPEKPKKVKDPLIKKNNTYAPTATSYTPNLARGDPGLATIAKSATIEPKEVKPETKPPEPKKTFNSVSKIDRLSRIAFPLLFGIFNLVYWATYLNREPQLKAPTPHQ

[2] = target: T2, α1β3(M286W+Y143W) GABAA receptor (Homo sapiens, UniProt P14867+P28472, M311W/Y168W); test: Two-electrode voltage clamp activation of α1β3; format: cell-based; conditions: for Po,max^est / nH / d: α1β3(M286W+Y143W); for d: KO/KC, MWC fit
T2 sequence (P28472 26-473 Y168W/M311W): T1 sequence (P28472 26-473 Y168W) with M286W
T2 sequence (P14867 28-456): T1 sequence (P14867 28-456)

[3] = target: T3, α1β3(M286W+F221W) GABAA receptor (Homo sapiens, UniProt P14867+P28472, F246W/M311W); test: Two-electrode voltage clamp activation of α1β3; format: cell-based; conditions: for Po,max^est / nH / d: α1β3(M286W+F221W); for d: KO/KC, MWC fit
T3 sequence (P28472 26-473 F246W/M311W): T1 sequence (P28472 26-473 Y168W) with W143Y, F221W, M286W
T3 sequence (P14867 28-456): T1 sequence (P14867 28-456)

[4] = target: T4, α1β3(M286W) GABAA receptor (Homo sapiens, UniProt P14867+P28472, M311W); test: Two-electrode voltage clamp activation of α1β3; format: cell-based; conditions: for Po,max^est / nH / d: α1β3(M286W); for d: KO/KC, MWC fit
T4 sequence (P28472 26-473 M311W): T1 sequence (P28472 26-473 Y168W) with W143Y, M286W
T4 sequence (P14867 28-456): T1 sequence (P14867 28-456)

[5] = target: T5, α1β3(M286W+Q224W) GABAA receptor (Homo sapiens, UniProt P14867+P28472, M311W/Q249W); test: cell-based
T5 sequence (P28472 26-473 Q249W/M311W): T1 sequence (P28472 26-473 Y168W) with W143Y, Q224W, M286W
T5 sequence (P14867 28-456): T1 sequence (P14867 28-456)

[6] = target: T6, α1β3(F221W) GABAA receptor (Homo sapiens, UniProt P14867+P28472, F246W); test: Two-electrode voltage clamp activation of α1β3; format: cell-based; conditions: for Po,max^est / nH / d: α1β3(F221W); for d: KO/KC, MWC fit
T6 sequence (P28472 26-473 F246W): T1 sequence (P28472 26-473 Y168W) with W143Y, F221W
T6 sequence (P14867 28-456): T1 sequence (P14867 28-456)

α1β3 GABAA receptor = target: T7, α1β3 GABAA receptor (Homo sapiens, UniProt P14867+P28472); format: cell-based; conditions: for d / Po,max^est / nH: wild-type α1β3; for d: KO/KC, gating efficacy, MWC fit, n = 5 for propofol, 2 for GABA; for Po,max^est: estimated maximal open probability at saturating agonist; for nH: slope of concentration-response curve
T7 sequence (P28472 26-473): T1 sequence (P28472 26-473 Y168W) with W143Y
T7 sequence (P14867 28-456): T1 sequence (P14867 28-456)

[7] = target: T8, α1β3(Q224W) GABAA receptor (Homo sapiens, UniProt P14867+P28472, Q249W); test: Two-electrode voltage clamp activation of α1β3; format: cell-based; conditions: for Po,max^est / nH / d: α1β3(Q224W); for d: KO/KC, MWC fit
T8 sequence (P28472 26-473 Q249W): T1 sequence (P28472 26-473 Y168W) with W143Y, Q224W
T8 sequence (P14867 28-456): T1 sequence (P14867 28-456)

β3(Y143W) receptor = conditions: β3(Y143W) homomeric receptor compared with wild-type; cited from earlier work
α1β2γ2L GABAA receptors = conditions: compared with propofol; cited from earlier work

Row | Compound | Po,max^est [1] | nH [1] | d [1] | Po,max^est [2] | nH [2] | d [2] | Po,max^est [3] | nH [3] | d [3] | Po,max^est [4] | nH [4] | d [4] | Po,max^est [6] | nH [6] | d [6] | d (α1β3 GABAA receptor) | Po,max^est (α1β3 GABAA receptor) | nH (α1β3 GABAA receptor) | Po,max^est [7] | nH [7] | other results
1 | NCCCC(=O)O [GABA, γ-aminobutyric acid] | 1 | 1.7±0.1 | 0.02±0.001 | 0.96±0.09 | 0.8±0.1 | 0.08±0.05 | 1 | 1.1±0.1 | 0.07±0.05 | 0.94±0.01 | 1.8±0.2 | 0.005±0.002 | 1 | 1.5±0.1 | 0.03±0.02 | 0.02±0.001 | 0.65±0.04 | 1.5±0.1 | 0.24±0.03 | 1.0±0.1 | Po,max^est ([5]; α1β3(M286W+Q224W)): 0.87±0.02; nH ([5]; α1β3(M286W+Q224W)): 1.1±0.1; d ([5]; α1β3(M286W+Q224W), KO/KC, MWC fit): 0.04±0.004; d [7]: 0.06±0.01
2 | CC(C)c1ccccc1O [2-isopropylphenol] | – | – | – | – | – | – | – | – | – | – | – | – | – | – | – | – | – | – | – | – | activation of the mutant receptor (β3(Y143W) receptor): unchanged
3 | CC(C)c1ccc(C2(C(F)(F)F)N=N2)cc1O [meta-azipropofol, 2-isopropyl-5-[3-(trifluoromethyl)-3H-diazirin-3-yl]phenol] | – | – | – | – | – | – | – | – | – | – | – | – | – | – | – | – | – | – | – | – | degree of potentiation (α1β2γ2L GABAA receptors): somewhat smaller degree of potentiation
4 | Cc1cccc(C)c1O [2,6-dimethylphenol] | – | – | – | – | – | – | – | – | – | – | – | – | – | – | – | – | – | – | – | – | activation of the mutant receptor (β3(Y143W) receptor): unchanged
5 | CC(C)c1cccc(C(C)C)c1O [Propofol, 2,6-diisopropylphenol] | 1 | 1.6±0.1 | 0.27±0.03 | 0.64±0.02 | 1.5±0.2 | 0.93±0.01 | 0.60±0.04 | 1.1±0.1 | 0.84±0.01 | 0.33±0.04 | 2.8±0.3 | 0.27±0.01 | 1 | 1.9±0.3 | 0.23±0.01 | 0.24±0.01 | 0.50±0.02 | 1.7±0.3 | 1 | 2.9±0.6 | EC50 [1]: 12.8 ± 2.9 µM; Kd [1]: 23 ± 6 µM; EC50 [2]: 1.6 ± 0.2 µM; Kd [2]: 1.4 ± 0.3 µM; EC50 [3]: 6.6 ± 0.8 µM; Kd [3]: 5.7 ± 1.6 µM; EC50 [4]: 14 ± 0.7 µM; Kd [4]: 6 ± 1.4 µM; EC50 [5]: 69 ± 9 µM; Kd [5]: 61 ± 14 µM; Po,max^est [5]: 0.11±0.01; d [5]: 0.58±0.01; nH [5]: 1.9±0.1; EC50 [6]: 5 ± 0.5 µM; Kd [6]: 13.1 ± 1.5 µM; EC50 (α1β3 GABAA receptor; EC50, wild-type α1β3, direct activation, mean ± S.E.M., at least 4 cells): 13 µM and 12.5 µM; EC50 [7]: 50 ± 2 µM; Kd [7]: 336 ± 435 µM; d [7]: 0.04±0.05
